For two molecules, Kd and Km results are on record in publication PMC10278073, “How Is Substrate Halogenation Triggered by the Vanadium Haloperoxidase from Curvularia inaequalis?” (ACS Catalysis, 2023).

Series [1] deals with T1, vanadium chloroperoxidase (CiVCPO) (Curvularia inaequalis, UniProt P49053).
T1 construct: gene CPO; His-trap purified CiVCPO expressed in E. coli BL21 DE3 (67 kDa)
T1 sequence (P49053 1-609): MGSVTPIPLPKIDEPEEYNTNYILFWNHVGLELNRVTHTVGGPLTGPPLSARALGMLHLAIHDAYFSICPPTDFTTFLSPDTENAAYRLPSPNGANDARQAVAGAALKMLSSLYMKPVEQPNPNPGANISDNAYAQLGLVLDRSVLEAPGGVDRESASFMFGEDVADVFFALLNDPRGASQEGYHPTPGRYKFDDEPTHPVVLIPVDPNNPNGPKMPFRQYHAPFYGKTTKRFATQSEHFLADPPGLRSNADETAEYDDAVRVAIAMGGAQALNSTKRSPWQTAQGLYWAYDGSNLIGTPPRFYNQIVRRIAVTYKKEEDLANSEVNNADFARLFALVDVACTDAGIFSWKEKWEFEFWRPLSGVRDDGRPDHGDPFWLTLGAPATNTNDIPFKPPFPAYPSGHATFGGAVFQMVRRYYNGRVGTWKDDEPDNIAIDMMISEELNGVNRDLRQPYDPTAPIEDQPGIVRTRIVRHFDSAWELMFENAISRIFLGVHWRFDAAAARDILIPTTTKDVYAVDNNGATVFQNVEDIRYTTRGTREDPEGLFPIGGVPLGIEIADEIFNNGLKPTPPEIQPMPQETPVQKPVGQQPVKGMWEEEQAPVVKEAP
Description: fluorescence binding titration (quenching), tight-binding fit, pH […].

Substrate in series [2]: c1ccc(-c2cc3ccccc3[nH]2)cc1
Nature of the series: purified protein. The conditions noted are these: vanadate pocket near the protein surface: Pro47, His222, Gln220, Asp292, Gly293, Asp390, Phe393, Pro396, Phe397 (docking/MD only).

By Kd is commonly meant the concentration at which binding is half-saturated. Read a high Kd as weaker binding. Usually Km stands for the concentration of substrate that gives half-maximal velocity.

As to `Cn1c(-c2ccccc2)cc2ccccc21` [methylphenylindole], in series [1], the Kd stood at 660 ± 50 nM.

B1: vanadium chloroperoxidase (CiVCPO) (Curvularia inaequalis) (protein)
chain: MGSVTPIPLPKIDEPEEYNTNYILFWNHVGLELNRVTHTVGGPLTGPPLSARALGMLHLAIHDAYFSICPPTDFTTFLSPDTENAAYRLPSPNGANDARQAVAGAALKMLSSLYMKPVEQPNPNPGANISDNAYAQLGLVLDRSVLEAPGGVDRESASFMFGEDVADVFFALLNDPRGASQEGYHPTPGRYKFDDEPTHPVVLIPVDPNNPNGPKMPFRQYHAPFYGKTTKRFATQSEHFLADPPGLRSNADETAEYDDAVRVAIAMGGAQALNSTKRSPWQTAQGLYWAYDGSNLIGTPPRFYNQIVRRIAVTYKKEEDLANSEVNNADFARLFALVDVACTDAGIFSWKEKWEFEFWRPLSGVRDDGRPDHGDPFWLTLGAPATNTNDIPFKPPFPAYPSGHATFGGAVFQMVRRYYNGRVGTWKDDEPDNIAIDMMISEELNGVNRDLRQPYDPTAPIEDQPGIVRTRIVRHFDSAWELMFENAISRIFLGVHWRFDAAAARDILIPTTTKDVYAVDNNGATVFQNVEDIRYTTRGTREDPEGLFPIGGVPLGIEIADEIFNNGLKPTPPEIQPMPQETPVQKPVGQQPVKGMWEEEQAPVVKEAP
Take B1: the Km in series [2] was 1.52 µM.
